According to patent publication US20260356819A1, “OXOISOINDOLINYL-SUBSTITUTED […] DERIVATIVE AND USE THEREOF” (GLUETACS THERAPEUTICS (SHANGHAI) CO., LTD., priority 2023, published 2026):

Experiments:
Format in all cases: cell-based
Conditions in all cases: compounds at 50 nM and 500 nM
CK1α = molecular target: T1, CK1α (Homo sapiens, UniProt P48729+Q96SW2); assay: Western blot degradation of CK1α in hPBMCs (24 h)
T1 construct: The supernatant was aspirated as the extracted total cell protein; endogenous in cells; host or cells: human peripheral blood mononuclear cells (hPBMCs)
Method in brief: (§1)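 Immunoblot densitometry quantifies target loss in hPBMCs after a 24 h compound exposure (50 nM, 500 nM). Percent remaining is normalised band intensity; DC50 is the concentration giving half the DMSO-control band grayscale.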

WEE1 = molecular target: T2, WEE1 (Homo sapiens, UniProt P30291+Q96SW2); assay: Western blot degradation of WEE1 in hPBMCs (24 h)
T2 construct: The supernatant was aspirated as the extracted total cell protein; endogenous in cells; host or cells: human peripheral blood mononuclear cells (hPBMCs)
Method in brief: as §1

IKZF2 = molecular target: T3, IKZF2 (Homo sapiens, UniProt Q96SW2+Q9UKS7); assay: Western blot degradation of IKZF2 in hPBMCs (24 h)
T3 construct: The supernatant was aspirated as the extracted total cell protein; endogenous in cells; host or cells: human peripheral blood mononuclear cells (hPBMCs)
Method in brief: as §1

GSPT1 = molecular target: T4, GSPT1 (Homo sapiens, UniProt P15170+Q96SW2); assay: Western blot degradation of GSPT1 in hPBMCs (24 h)
T4 construct: The supernatant was aspirated as the extracted total cell protein; endogenous in cells; host or cells: human peripheral blood mononuclear cells (hPBMCs)
Method in brief: as §1

IKZF1 = molecular target: T5, IKZF1 (Homo sapiens, UniProt Q13422+Q96SW2); assay: Western blot degradation of IKZF1 in hPBMCs (24 h)
T5 construct: The supernatant was aspirated as the extracted total cell protein; endogenous in cells; host or cells: human peripheral blood mononuclear cells (hPBMCs)
Method in brief: as §1

IKZF3 = molecular target: T6, IKZF3 (Homo sapiens, UniProt Q96SW2+Q9UKT9); assay: Western blot degradation of IKZF3 in hPBMCs (24 h)
T6 construct: The supernatant was aspirated as the extracted total cell protein; endogenous in cells; host or cells: human peripheral blood mononuclear cells (hPBMCs)
Method in brief: as §1

T6 sequence (Q9UKT9 whole entry): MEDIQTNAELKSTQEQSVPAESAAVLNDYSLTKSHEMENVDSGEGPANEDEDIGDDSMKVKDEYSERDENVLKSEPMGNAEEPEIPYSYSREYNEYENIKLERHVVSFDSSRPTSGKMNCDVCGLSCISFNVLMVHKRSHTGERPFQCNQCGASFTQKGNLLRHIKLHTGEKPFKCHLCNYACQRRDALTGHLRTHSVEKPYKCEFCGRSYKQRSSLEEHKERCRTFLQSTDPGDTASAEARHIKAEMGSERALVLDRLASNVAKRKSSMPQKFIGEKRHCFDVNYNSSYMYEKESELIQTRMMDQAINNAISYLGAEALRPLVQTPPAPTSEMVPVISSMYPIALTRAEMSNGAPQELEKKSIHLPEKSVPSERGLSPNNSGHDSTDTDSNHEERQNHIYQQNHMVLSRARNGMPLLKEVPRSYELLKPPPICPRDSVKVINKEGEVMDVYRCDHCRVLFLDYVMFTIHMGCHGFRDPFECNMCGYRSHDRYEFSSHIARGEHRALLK
T6 sequence (Q96SW2 whole entry): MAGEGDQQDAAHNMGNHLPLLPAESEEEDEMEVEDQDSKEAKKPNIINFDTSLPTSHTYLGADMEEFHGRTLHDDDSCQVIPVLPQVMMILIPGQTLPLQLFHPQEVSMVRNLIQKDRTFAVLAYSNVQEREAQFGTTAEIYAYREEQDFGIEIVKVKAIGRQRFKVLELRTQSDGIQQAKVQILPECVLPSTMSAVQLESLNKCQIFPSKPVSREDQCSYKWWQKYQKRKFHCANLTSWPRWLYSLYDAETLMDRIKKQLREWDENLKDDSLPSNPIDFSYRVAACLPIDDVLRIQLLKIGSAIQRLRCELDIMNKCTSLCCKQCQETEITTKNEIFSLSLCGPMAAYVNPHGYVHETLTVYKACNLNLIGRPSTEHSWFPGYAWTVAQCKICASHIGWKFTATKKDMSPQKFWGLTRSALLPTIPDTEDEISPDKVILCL
T6 sequence (Q16531 whole entry partner): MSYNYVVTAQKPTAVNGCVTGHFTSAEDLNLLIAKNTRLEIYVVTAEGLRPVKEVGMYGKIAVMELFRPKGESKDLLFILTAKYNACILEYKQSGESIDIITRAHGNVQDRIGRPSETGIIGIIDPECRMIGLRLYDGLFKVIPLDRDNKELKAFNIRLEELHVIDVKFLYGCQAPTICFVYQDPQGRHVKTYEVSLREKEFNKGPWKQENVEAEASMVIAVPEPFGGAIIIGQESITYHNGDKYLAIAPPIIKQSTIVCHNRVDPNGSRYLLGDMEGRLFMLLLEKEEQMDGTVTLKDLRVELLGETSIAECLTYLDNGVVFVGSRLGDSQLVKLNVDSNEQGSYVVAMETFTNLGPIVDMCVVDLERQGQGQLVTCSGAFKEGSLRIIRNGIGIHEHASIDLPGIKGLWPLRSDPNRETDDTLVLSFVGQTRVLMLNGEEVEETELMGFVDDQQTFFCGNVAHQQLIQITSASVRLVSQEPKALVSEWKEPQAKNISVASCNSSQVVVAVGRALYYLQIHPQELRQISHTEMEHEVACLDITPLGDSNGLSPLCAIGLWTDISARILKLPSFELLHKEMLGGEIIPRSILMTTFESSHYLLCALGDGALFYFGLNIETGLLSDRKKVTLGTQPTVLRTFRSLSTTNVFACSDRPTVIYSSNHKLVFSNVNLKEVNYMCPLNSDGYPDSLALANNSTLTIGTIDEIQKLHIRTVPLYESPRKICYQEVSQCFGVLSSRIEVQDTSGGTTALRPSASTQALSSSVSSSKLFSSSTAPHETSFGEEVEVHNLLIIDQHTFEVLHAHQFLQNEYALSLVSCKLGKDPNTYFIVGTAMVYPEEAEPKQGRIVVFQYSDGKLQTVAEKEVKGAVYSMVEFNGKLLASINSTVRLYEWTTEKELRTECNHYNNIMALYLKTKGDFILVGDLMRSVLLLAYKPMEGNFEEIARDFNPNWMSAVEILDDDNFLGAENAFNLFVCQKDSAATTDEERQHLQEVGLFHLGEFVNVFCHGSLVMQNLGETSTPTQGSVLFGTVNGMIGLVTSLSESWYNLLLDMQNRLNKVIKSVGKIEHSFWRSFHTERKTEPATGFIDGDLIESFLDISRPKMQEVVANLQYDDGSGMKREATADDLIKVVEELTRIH
T1 sequence (P48729 whole entry): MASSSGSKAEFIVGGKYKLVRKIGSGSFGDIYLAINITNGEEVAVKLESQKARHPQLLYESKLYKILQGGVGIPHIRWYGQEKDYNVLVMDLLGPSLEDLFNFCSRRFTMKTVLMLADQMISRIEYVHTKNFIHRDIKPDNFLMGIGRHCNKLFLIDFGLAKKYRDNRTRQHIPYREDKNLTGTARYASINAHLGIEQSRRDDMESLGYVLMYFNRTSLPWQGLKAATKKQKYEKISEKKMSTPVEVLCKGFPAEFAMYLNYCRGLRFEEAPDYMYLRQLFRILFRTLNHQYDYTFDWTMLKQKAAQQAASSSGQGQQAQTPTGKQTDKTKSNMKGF
T1 sequence (Q96SW2 whole entry): as the sequence (Q96SW2 whole entry) above
T1 sequence (Q16531 whole entry partner): as the sequence (Q16531 whole entry partner) above
T3 sequence (Q9UKS7 whole entry): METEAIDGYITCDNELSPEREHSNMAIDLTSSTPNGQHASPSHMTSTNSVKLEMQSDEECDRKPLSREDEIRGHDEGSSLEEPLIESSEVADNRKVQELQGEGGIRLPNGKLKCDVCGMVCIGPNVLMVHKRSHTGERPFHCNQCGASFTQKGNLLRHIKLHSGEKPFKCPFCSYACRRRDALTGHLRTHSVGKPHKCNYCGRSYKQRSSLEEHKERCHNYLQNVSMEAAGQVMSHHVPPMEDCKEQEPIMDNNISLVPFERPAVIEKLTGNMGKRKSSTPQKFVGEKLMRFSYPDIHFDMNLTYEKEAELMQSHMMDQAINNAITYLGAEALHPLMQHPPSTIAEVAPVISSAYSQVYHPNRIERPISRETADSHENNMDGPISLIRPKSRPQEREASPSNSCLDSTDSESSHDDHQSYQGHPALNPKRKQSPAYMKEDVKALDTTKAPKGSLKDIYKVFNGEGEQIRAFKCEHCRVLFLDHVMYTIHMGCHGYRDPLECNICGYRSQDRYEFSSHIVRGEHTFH
T3 sequence (Q96SW2 whole entry): as the sequence (Q96SW2 whole entry) above
T3 sequence (Q16531 whole entry partner): as the sequence (Q16531 whole entry partner) above
T4 sequence (P15170 whole entry): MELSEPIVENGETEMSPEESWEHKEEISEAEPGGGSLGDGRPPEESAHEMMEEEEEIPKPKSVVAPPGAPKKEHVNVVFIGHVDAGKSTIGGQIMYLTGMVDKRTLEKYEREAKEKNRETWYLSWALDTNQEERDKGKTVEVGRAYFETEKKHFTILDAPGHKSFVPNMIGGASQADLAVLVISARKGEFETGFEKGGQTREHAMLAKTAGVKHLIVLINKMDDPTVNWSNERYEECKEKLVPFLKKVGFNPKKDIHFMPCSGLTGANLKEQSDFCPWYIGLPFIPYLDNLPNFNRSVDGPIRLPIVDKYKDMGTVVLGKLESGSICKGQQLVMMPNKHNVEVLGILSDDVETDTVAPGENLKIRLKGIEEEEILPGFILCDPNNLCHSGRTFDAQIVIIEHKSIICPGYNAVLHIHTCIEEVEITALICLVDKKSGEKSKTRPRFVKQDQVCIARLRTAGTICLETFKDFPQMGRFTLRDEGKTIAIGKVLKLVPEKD
T4 sequence (Q96SW2 whole entry): as the sequence (Q96SW2 whole entry) above
T4 sequence (Q16531 whole entry partner): as the sequence (Q16531 whole entry partner) above
T5 sequence (Q13422 whole entry): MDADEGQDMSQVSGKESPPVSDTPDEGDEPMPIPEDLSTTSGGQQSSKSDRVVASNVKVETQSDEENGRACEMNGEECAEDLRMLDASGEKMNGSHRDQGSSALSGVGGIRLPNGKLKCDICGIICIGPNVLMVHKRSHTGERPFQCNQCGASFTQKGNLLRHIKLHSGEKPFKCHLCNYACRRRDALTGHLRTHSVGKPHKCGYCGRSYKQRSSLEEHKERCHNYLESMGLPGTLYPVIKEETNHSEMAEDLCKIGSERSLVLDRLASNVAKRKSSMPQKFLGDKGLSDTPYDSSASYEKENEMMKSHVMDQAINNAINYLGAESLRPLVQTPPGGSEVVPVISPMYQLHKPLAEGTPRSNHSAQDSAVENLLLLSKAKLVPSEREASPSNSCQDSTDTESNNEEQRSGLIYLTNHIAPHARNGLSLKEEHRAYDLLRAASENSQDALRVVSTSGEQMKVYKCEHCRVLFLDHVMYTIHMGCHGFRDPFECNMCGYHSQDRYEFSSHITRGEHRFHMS
T5 sequence (Q96SW2 whole entry): as the sequence (Q96SW2 whole entry) above
T5 sequence (Q16531 whole entry partner): as the sequence (Q16531 whole entry partner) above

Row | SMILES | CK1α substrate protein remaining % (CK1α) | WEE1 substrate protein remaining % (WEE1) | IKZF2 substrate protein remaining % (IKZF2) | GSPT1 substrate protein remaining % (GSPT1) | IKZF1 substrate protein remaining % (IKZF1) | IKZF3 substrate protein remaining % (IKZF3)
1 | O=C1CCN(N2Cc3cc(CN4CCN(c5ncnc6scc(-c7ccccc7)c56)CC4)ccc3C2=O)C(=O)N1 [GT-08065, 1-(1-oxo-5-((4-(5-phenylthieno[2,3-d]pyrimidin-4-yl)piperazin-1-yl)methyl)isoindolin-2-yl)dihydropyrimidine-2,4(1H,3H)-dione] | B (80%< substrate protein remaining % ≤100%) | B (80%< substrate protein remaining % ≤100%) | A (0% ≤ substrate protein remaining % ≤80%) | B (80%< substrate protein remaining % ≤100%) | B (80%< substrate protein remaining % ≤100%) | B (80%< substrate protein remaining % ≤100%)
2 | Cc1nc(N2CCN(Cc3ccc4c(c3)CN(N3CCC(=O)NC3=O)C4=O)CC2)c2c(-c3ccccc3)csc2n1 [GT-08066, 1-(5-((4-(2-methyl-5-phenylthieno[2,3-d]pyrimidin-4-yl)piperazin-1-yl)methyl)-1-oxoisoindolin-2-yl)dihydropyrimidine-2,4(1H,3H)-dione] | A (0% ≤ substrate protein remaining % ≤80%) | B (80%< substrate protein remaining % ≤100%) | A (0% ≤ substrate protein remaining % ≤80%) | B (80%< substrate protein remaining % ≤100%) | B (80%< substrate protein remaining % ≤100%) | B (80%< substrate protein remaining % ≤100%)
3 | Cc1nc(N2CCN(Cc3ccc4c(c3)CN(N3CCC(=O)NC3=O)C4=O)CC2)c2ccsc2n1 [GT-08067, 1-(5-((4-(2-methylthieno[2,3-d]pyrimidin-4-yl)piperazin-1-yl)methyl)-1-oxoisoindolin-2-yl)dihydropyrimidine-2,4(1H,3H)-dione] | B (80%< substrate protein remaining % ≤100%) | B (80%< substrate protein remaining % ≤100%) | A (0% ≤ substrate protein remaining % ≤80%) | B (80%< substrate protein remaining % ≤100%) | B (80%< substrate protein remaining % ≤100%) | B (80%< substrate protein remaining % ≤100%)
4 | Cc1nc(N2CCN(Cc3ccc4c(c3)CN(N3CCC(=O)NC3=O)C4=O)CC2)c2c3c(sc2n1)CCCC3 [GT-08068, 1-(5-((4-(2-methyl-5,6,7,8-tetrahydrobenzo[4,5]thieno[2,3-d]pyrimidin-4-yl)piperazin-1-yl)methyl)-1-oxoisoindolin-2-yl)dihydropyrimidine-2,4(1H,3H)-dione] | A (0% ≤ substrate protein remaining % ≤80%) | B (80%< substrate protein remaining % ≤100%) | A (0% ≤ substrate protein remaining % ≤80%) | B (80%< substrate protein remaining % ≤100%) | B (80%< substrate protein remaining % ≤100%) | B (80%< substrate protein remaining % ≤100%)
5 | O=C1CCN(N2Cc3cc(CN4CCN(c5ncnc6sc7c(c56)CCCC7)CC4)ccc3C2=O)C(=O)N1 [GT-08077, 1-(1-oxo-5-((4-(5,6,7,8-tetrahydrobenzo[4,5]thieno[2,3-d]pyrimidin-4-yl)piperazin-1-yl)methyl)isoindolin-2-yl)dihydropyrimidine-2,4(1H,3H)-dione] | A (0% ≤ substrate protein remaining % ≤80%) | B (80%< substrate protein remaining % ≤100%) | B (80%< substrate protein remaining % ≤100%) | A (0% ≤ substrate protein remaining % ≤80%) | B (80%< substrate protein remaining % ≤100%) | B (80%< substrate protein remaining % ≤100%)
